pIC50, pKi: −log10 of the molar value. “Also recorded” adds a separate entry of the source.
Key:
[1] = test system: enzymes involved in extracellular degradation of AMP; experiment: Phosphate production (Malachite Green) in tissue sections from the Zusanli point; assay type: biochemical, mice; conditions: for dephosphorylation of AMP (phosphate production): inhibitor 500 μM, tissue in 1 mM AMP for 45 min; for rate of phosphate generation: 1 mM added as substrate, n=3
[2] = biological target: T1, adenosine kinase (Homo sapiens, UniProt P55263); conditions: cited from earlier work
[3] = test system: fEPSP in anterior cingulate cortex; experiment: In vivo electrophysiology: fEPSP in left anterior cingulate cortex evoked by painful foot shock; design: species or system mice
Method: Mice were anaesthetized with 2-3% isoflurane, intubated, and artificially ventilated with a small animal ventilator (SAAR-830, CWE). Body temperature was monitored by a rectal probe and maintained at 37° C. by a heating blanket (BS4, Harvard Apparatus). A craniotomy (1-1.5 mm in diameter), centered 0.1 mm anterior to the bregma and 1.5 mm lateral from midline, was made over the left anterior cingulated cortex. A custom-made metal plate was glued to the skull with dental acrylic cement. The mice were for the remaining part of the experiment maintained at 2% isoflurane. LFP recordings were obtained from layer 4 of anterior cingulate cortex (ACC), 0.8 mm below the pial surface by a patch pipette (TW100E-4, WPI; outer diameter, 1.0 mm; inner diameter, 0.75 mm; tip diameter, 1-2 μm). […] Dura matter was kept intact. A custom-made bipolar electrode was inserted subcutaneously into the right hindpaw. High intensity stimulation (10 mA, 20 ms) were evoked every 120 sec. Lower stimulation intensities evoked either no or variable responses consistent with the idea that that ACC neurons respond primarily to painful stimuli Wei et al., “Potentiation of Sensory Responses in the Anterior Cingulate Cortex Following Digit Amputation in the Anaesthetised Rat,” J. Physiol. 532:823-833 (2001), which is hereby incorporated by reference in its entirety). The amplitude of the field EPSPs was measured using the pCLAMP 9.2 program (Axon Instruments, Inc., Foster City, Calif., USA).

[4] = test system: mice with inflammatory or neuropathic pain; experiment: Statements covering both inflammatory and neuropathic pain models; assay type: in vivo; conditions: both pain models
Method: Peripheral inflammation was induced by injection of Complete Freud Adjuvant (CFA, mixed with an equal amount of oil, total volume 0.1 ml) in the plantar surface of the left hind paw of mice (25-30 g, Jackson labs) (Raghavendra et al., “Complete Freunds Adjuvant-Induced Peripheral Inflammation Evokes Glial Activation and Proinflammatory Cytokine Expression in the CNS,” Eur. J. Neurosci. 20:467-473 (2004), which is hereby incorporated by reference in its entirety). An equal amount of saline (0.1 ml) was injected in the right hind paw as control. […]
Mechanical allodynia was evaluated using repeated stimulations with a Von Frey filament exerting 0.02 grams of force onto the plantar surface (Colburn et al., “The Effect of Site and Type of Nerve Injury on Spinal Glial Activation and Neuropathic Pain Behavior,” Exp. Neurol. 157:289-304. (1999), which is hereby incorporated by reference in its entirety). The percentage of negative responses of a total of 10 trials was calculated for each foot. Thermal hyperalgesia was assessed using an Analgesymeter (Ugo Basile, Comerio, Italy) (Stein et al., “Intrinsic Mechanisms of Antinociception in Inflammation: Local Opioid Receptors and Beta-Endorphin,” J. Neurosci. 10:1292-1298 (1990), which is hereby incorporated by reference in its entirety). […] The paw withdrawal was repeated three times for each foot and the average calculated. […] Behavioral parameters were evaluated prior to intraplantar injection of CFA or nerve ligation (i.e. day 0), and again on day 3-4 in mice receiving the CFA injection, and at day 5-7 in mice with nerve ligation unless otherwise noted. […]

[5] = test system: mice with inflammatory pain (CFA); experiment: Inflammatory pain (CFA in paw): mechanical allodynia (Von Frey) and thermal hyperalgesia; assay type: in vivo
Description: Peripheral inflammation was induced by injection of Complete Freud Adjuvant (CFA, mixed with an equal amount of oil, […], Jackson labs) (Raghavendra et al., “Complete Freunds Adjuvant-Induced Peripheral Inflammation Evokes Glial Activation and Proinflammatory Cytokine Expression in the CNS,” Eur. J. Neurosci. 20:467-473 (2004), which is hereby incorporated by reference in its entirety). […] Neuropathic pain was induced by ligation of the sciatic nerve with 4.0 polypropylene suture in mice sedated with ketamine (60 mg/kg, i.p.) and xylazine (10 mg/kg, i.p.) (Bennett et al., “A Peripheral Mononeuropathy in Rat that Produces Disorders of Pain Sensation Like Those Seen in Man,” Pain 33:87-107 (1988); Martucci et al., “The Purinergic Antagonist PPADS Reduces Pain Related Behaviours and Interleukin-1 beta, Interleukin-6, iNOS and nNOS Overproduction in Central and Peripheral Nervous System After Peripheral Neuropathy in Mice,” Pain 137:81-95 (2008), which are hereby incorporated by reference in their entirety).
Mechanical allodynia was evaluated using repeated stimulations with a Von Frey filament exerting 0.02 grams of force onto the plantar surface (Colburn et al., “The Effect of Site and Type of Nerve Injury on Spinal Glial Activation and Neuropathic Pain Behavior,” Exp. Neurol. 157:289-304. (1999), which is hereby incorporated by reference in its entirety). The percentage of negative responses of a total of 10 trials was calculated for each foot. Thermal hyperalgesia was assessed using an Analgesymeter (Ugo Basile, Comerio, Italy) (Stein et al., “Intrinsic Mechanisms of Antinociception in Inflammation: Local Opioid Receptors and Beta-Endorphin,” J. Neurosci. 10:1292-1298 (1990), which is hereby incorporated by reference in its entirety). In short, a mobile radiant heat source was focused on the hind paw, and the paw withdrawal latencies were defined as the time taken by the mouse to remove its hind paw from the heat source (max 20 sec to avoid tissue damage). The paw withdrawal was repeated three times for each foot and the average calculated. To avoid conditioning to stimulation a 5 min rest period was interposed between each trial in both thermal and mechanical tests. Behavioral parameters were evaluated prior to intraplantar injection of CFA or nerve ligation (i.e. day 0), and again on day 3-4 in mice receiving the CFA injection, and at day 5-7 in mice with nerve ligation unless otherwise noted. Prior to injection of CCPA, saline, or acupuncture in the Zusanli point, the mice were placed in a restraining under light isoflurane anesthesia (˜1%). The total duration of anesthesia was ˜2 min and mice with inflammatory, neurogenic pain, and their controls were treated similarly. 2-chloro-N6-cyclopentyl-adenosine (CCPA, 0.1 mM, 20 μl) was injected in the Zusanli point ˜5 min before acupuncture. […] The needle was slowly rotated ˜2 time (˜20-30 sec) every 5 min for a total of 30 min during an acupuncture session. A microdialysis probe (MD-2211, Bioanalytical systems, West Lafayette, Ind.) was implanted 1-3 hrs prior to collection of microdialysis samples. The microdialysis probe was implanted in a distance of 0.4-0.6 mm from the Zusanli point. The microdialysis probe was perfused with Ringer's solution at a rate of 1 μl per minute. The microdialysates were collected on ice and the perfusate collected over a 30 min period (30 μl) was immediately frozen at −80° C. until HPLC analysis. Deoxycoformycin was administered in a dose of 50 mg/kg i.p. 30 min prior to acupuncture.

[6] = test system: mice with neuropathic pain; experiment: Neuropathic pain (sciatic nerve ligation): mechanical allodynia and thermal hyperalgesia; assay type: in vivo
Method: Peripheral inflammation was induced by injection of Complete Freud Adjuvant (CFA, mixed with an equal amount of oil, total volume 0.1 ml) in the plantar surface of the left hind paw of mice (25-30 g, Jackson labs) (Raghavendra et al., “Complete Freunds Adjuvant-Induced Peripheral Inflammation Evokes Glial Activation and Proinflammatory Cytokine Expression in the CNS,” Eur. J. Neurosci. 20:467-473 (2004), which is hereby incorporated by reference in its entirety). An equal amount of saline (0.1 ml) was injected in the right hind paw as control. Neuropathic pain was induced by ligation of the sciatic nerve with 4.0 polypropylene suture in mice sedated with ketamine (60 mg/kg, i.p.) and xylazine (10 mg/kg, i.p.) (Bennett et al., “A Peripheral Mononeuropathy in Rat that Produces Disorders of Pain Sensation Like Those Seen in Man,” Pain 33:87-107 (1988); Martucci et al., “The Purinergic Antagonist PPADS Reduces Pain Related Behaviours and Interleukin-1 beta, Interleukin-6, iNOS and nNOS Overproduction in Central and Peripheral Nervous System After Peripheral Neuropathy in Mice,” Pain 137:81-95 (2008), which are hereby incorporated by reference in their entirety).
Mechanical allodynia was evaluated using repeated stimulations with a Von Frey filament exerting 0.02 grams of force onto the plantar surface (Colburn et al., “The Effect of Site and Type of Nerve Injury on Spinal Glial Activation and Neuropathic Pain Behavior,” Exp. Neurol. 157:289-304. (1999), which is hereby incorporated by reference in its entirety). The percentage of negative responses of a total of 10 trials was calculated for each foot. Thermal hyperalgesia was assessed using an Analgesymeter (Ugo Basile, Comerio, Italy) (Stein et al., “Intrinsic Mechanisms of Antinociception in Inflammation: Local Opioid Receptors and Beta-Endorphin,” J. Neurosci. 10:1292-1298 (1990), which is hereby incorporated by reference in its entirety). In short, a mobile radiant heat source was focused on the hind paw, and the paw withdrawal latencies were defined as the time taken by the mouse to remove its hind paw from the heat source (max 20 sec to avoid tissue damage). The paw withdrawal was repeated three times for each foot and the average calculated. To avoid conditioning to stimulation a 5 min rest period was interposed between each trial in both thermal and mechanical tests. Behavioral parameters were evaluated prior to intraplantar injection of CFA or nerve ligation (i.e. day 0), and again on day 3-4 in mice receiving the CFA injection, and at day 5-7 in mice with nerve ligation unless otherwise noted. Prior to injection of CCPA, saline, or acupuncture in the Zusanli point, the mice were placed in a restraining under light isoflurane anesthesia (˜1%). […]

[7] = biological target: Ecto-ATPase; conditions: Crack et al.; cited from earlier work
[8] = biological target: Rat Parotid Ecto-ATPase; conditions: cited from earlier work
[9] = biological target: Ecto-ATPase; conditions: cited from earlier work
[10] = test system: P2 receptors; conditions: cited from earlier work
[11] = biological target: T1, adenosine kinase; conditions: adenosine as substrate; cited from earlier work
[12] = biological target: adenosine transport; conditions: adenosine transport inhibitors; unit inferred; cited from earlier work

T1 sequence (P55263 whole entry, species assumed): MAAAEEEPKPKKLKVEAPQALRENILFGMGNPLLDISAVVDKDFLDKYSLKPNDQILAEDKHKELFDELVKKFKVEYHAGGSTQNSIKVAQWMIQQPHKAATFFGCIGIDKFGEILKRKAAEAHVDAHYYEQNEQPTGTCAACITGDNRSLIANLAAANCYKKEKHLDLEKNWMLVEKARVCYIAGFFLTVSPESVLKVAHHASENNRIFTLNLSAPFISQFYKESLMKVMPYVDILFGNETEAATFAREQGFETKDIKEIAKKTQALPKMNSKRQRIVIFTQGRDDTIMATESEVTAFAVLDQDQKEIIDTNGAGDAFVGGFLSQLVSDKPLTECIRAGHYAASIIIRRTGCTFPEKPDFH

Structure (SMILES): Nc1ncnc2c1ncn2[C@@H]1O[C@H](COP(=O)(O)CP(=O)(O)O)[C@@H](O)[C@H]1O [AOPCP]
- dephosphorylation of AMP (phosphate production) [1]: did not reduce dephosphorylation of AMP

Structure (SMILES): Nc1ncnc2c1ncn2[C@@H]1O[C@H](COP(=O)(O)O)[C@@H](O)[C@H]1O [AMP]
- rate of phosphate generation [1]: 0.043 ± 0.005 µM/mg/min

Structure (SMILES): Nc1ncnc2c1c(Br)cn2[C@@H]1C[C@H](N)[C@@H](O)[C@H]1O [A-286501, N7-((1′R,2′S,3′R,4′S)-2′,3′-dihydroxy-4′-amino-cyclopentyl)-4-amino-5-bromo-pyrrolo[2,3-a]pyrimidine]
- pIC50 [2]: 9.33

Structure (SMILES): OC[C@H]1O[C@@H](n2cnc3c(NC4CCCC4)nc(Cl)nc32)[C@H](O)[C@@H]1O [CCPA, 2-chloro-N(6)-cyclopentyladenosine]
- fEPSP response in mice with deletion of A1 receptors ([3]; A1R KO mice): failed to respond
- fEPSP amplitude ([3]; WT, 0.1 mM 20 μl in right Zusanli point (ipsilateral), within 20 min, before ~0.65 mV): ~0.22 mV
- fEPSP amplitude, % of baseline values ([3]; WT, ipsilateral injection, within 20 min): 26.6±11.0%
- effect on fEPSP ([3]; administered contralateral to the painful stimulation): no effect
- course of the pain-relieving effect [4]: transient
- sensitivity to painful stimulation in the contralateral (left) leg ([4]; injection in right Zusanli point): did not alter sensitivity
- mechanical and thermal hypersensitivity / pain threshold in right foot ([5]; 0.1 mM, 20 μl injected in the left (contralateral) Zusanli point): no effect; also recorded: did not alter the pain threshold
- mechanical and thermal pain in mice with deletion of A1 receptors ([5]; A1R KO mice): no clinical benefit
- paw withdrawal (thermal) ([5]; WT mice, after 0.1 mM, 20 μl in right Zusanli point, before: 3.7±0.3): 12.7 ± 1.5 s
- touch sensitivity (percentage of negative responses of 10 Von Frey trials) ([5]; WT mice, after 0.1 mM, 20 μl in right Zusanli point, before: 38.0±2.5): 85.7±2.0%
- withdrawal of foot (thermal) ([6]; WT mice, after injection in Zusanli point, before: 2.9±0.3): 16.2 ± 2.4 s
- touch sensitivity (percentage of negative responses of 10 Von Frey trials) ([6]; WT mice, after injection in Zusanli point, before: 25.0±2.2): 83.3±4.9%
- mechanical and thermal hypersensitivity / pain threshold in right foot ([6]; injected in the left (contralateral) Zusanli point): no effect; also recorded: did not alter the pain threshold

Structure (SMILES): CCN(CC)c1ncnc2c1ncn2[C@@H]1O[C@H](COP(=O)(O)OP(=O)(O)C(Br)(Br)P(=O)(O)O)[C@@H](O)[C@H]1O [ARL67156]
- pIC50 [7]: 5.34
- pIC50 [8]: 3.92
- pKi [9]: 6.59
- effect on P2 receptors [10]: lack of or only has weak effect

Structure (SMILES): [O]=[Mo](=[O])([O-])[O-] [molybdate]
- dephosphorylation of AMP (phosphate production) [1]: partly suppressed dephosphorylation of AMP

Structure (SMILES): O=S(=O)(NCCNC/C=C/c1ccc(Br)cc1)c1cccc2cnccc12 [H-89]
- CFA-induced mechanical pain hypersensitivity, contralateral paw ([5]; injected in the Zusanli point): not the contralateral paw
- CFA-induced mechanical pain hypersensitivity, ipsilateral (right leg) ([5]; injected in the Zusanli point): transiently and significantly reduced; also recorded: reduced pain temporarily

Structure (SMILES): Nc1ncnc2c1ncn2[C@@H]1O[C@H](CO)[C@@H](O)[C@H]1O [adenosine]
- Km [11]: ~0.02 µM

Structure (SMILES): NC(=O)C1CN(CCCCC(c2ccc(F)cc2)c2ccc(F)cc2)CCN1CC(=O)Nc1c(Cl)cc(N)cc1Cl (centres unmarked) [R75231, 2-(aminocarbonyl)-N-(4-amino-2,6-dichlorophenyl)-4-[5,5-bis(4-fluorophenyl)pentyl]-1-piperazineacetamide]
- pKi [12]: 10.00

Structure (SMILES): Nc1ncnc2c1ncn2[C@@H]1O[C@H](COP(=O)(O)OP(=O)(O)OP(=O)(O)O)[C@@H](O)[C@H]1O [ATP]
- rate of phosphate generation [1]: 0.428 ± 0.046 µM/mg/min

— patent US20130005676A1 (UNIVERSITY OF ROCHESTER, priority 2009, published 2013)
